{"source": "paper PMC7827406", "about": "“Structure–Activity Relationship (SAR) Study of Spautin-1 to Entail the Discovery of Novel NEK4 Inhibitors” (International Journal of Molecular Sciences, 2021)", "test_in_all_cases": "biochemical", "design_in_all_cases": "Eurofins KinaseProfiler full panel at Km ATP, residual kinase activity (%) relative to DMSO", "key": {"LATS2(h)": {"target": "T1, LATS2(h) (Homo sapiens, UniProt Q9NRM7)", "T1 sequence (Q9NRM7 1-1088)": "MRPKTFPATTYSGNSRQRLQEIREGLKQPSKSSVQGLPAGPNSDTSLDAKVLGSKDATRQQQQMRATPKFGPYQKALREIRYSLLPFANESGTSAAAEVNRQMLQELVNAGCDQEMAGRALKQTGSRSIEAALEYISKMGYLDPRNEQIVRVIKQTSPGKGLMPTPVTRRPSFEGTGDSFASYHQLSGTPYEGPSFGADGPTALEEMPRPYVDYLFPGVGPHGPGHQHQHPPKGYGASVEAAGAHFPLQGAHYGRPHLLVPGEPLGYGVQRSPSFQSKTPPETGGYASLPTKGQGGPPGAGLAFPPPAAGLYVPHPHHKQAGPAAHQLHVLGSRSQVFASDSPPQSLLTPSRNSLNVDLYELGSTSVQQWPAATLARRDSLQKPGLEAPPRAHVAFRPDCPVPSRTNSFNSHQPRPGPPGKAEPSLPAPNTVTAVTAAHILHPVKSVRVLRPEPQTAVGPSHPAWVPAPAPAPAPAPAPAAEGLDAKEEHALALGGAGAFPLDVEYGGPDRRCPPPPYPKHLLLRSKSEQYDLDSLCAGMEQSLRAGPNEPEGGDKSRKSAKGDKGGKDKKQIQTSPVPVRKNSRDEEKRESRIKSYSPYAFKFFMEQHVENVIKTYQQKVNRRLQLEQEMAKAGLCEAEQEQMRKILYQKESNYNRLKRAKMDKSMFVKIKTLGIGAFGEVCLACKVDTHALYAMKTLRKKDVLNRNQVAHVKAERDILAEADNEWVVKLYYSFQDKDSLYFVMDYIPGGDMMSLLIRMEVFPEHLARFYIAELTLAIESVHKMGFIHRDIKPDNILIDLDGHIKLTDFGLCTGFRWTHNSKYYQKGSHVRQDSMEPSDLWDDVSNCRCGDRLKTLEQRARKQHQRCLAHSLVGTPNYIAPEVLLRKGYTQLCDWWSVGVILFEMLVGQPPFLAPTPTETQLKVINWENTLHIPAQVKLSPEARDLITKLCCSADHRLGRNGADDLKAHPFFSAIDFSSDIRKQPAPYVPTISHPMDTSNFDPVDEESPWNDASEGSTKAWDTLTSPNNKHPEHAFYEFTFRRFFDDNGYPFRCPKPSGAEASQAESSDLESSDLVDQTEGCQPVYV", "outline": "(§1)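 Compounds screened at 10 µM in radiometric kinase activity assays at Km ATP, reported as remaining kinase activity (%). A KINOMEscan competition-binding screen at 10 µM measured DNA-tagged kinase retained on immobilized active-site ligand by qPCR.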"}, "DRAK1(h)": {"target": "T2, DRAK1(h) (Homo sapiens, UniProt Q9UEE5)", "T2 construct": "gene STK17A", "T2 sequence (Q9UEE5 1-414)": "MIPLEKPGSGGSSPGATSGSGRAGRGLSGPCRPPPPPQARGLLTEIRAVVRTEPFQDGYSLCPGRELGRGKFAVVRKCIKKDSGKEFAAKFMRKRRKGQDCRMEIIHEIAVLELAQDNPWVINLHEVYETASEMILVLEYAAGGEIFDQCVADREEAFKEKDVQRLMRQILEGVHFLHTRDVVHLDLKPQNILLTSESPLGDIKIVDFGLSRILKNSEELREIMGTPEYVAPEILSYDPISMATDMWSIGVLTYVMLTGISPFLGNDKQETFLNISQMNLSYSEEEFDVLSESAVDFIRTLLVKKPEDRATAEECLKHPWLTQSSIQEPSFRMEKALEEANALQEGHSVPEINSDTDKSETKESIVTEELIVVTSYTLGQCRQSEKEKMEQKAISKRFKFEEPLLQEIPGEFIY", "outline": "as §1"}, "CaMKIIδ(h)": {"target": "T3, CaMKIIδ(h) (Homo sapiens, UniProt Q13557)", "T3 construct": "gene CAMK2D", "outline": "as §1"}, "[1]": {"target": "T4, PI3 Kinase (p110a(E545K)/p85a)(h) (Homo sapiens, UniProt P42336, E545K)", "T4 construct": "gene PIK3CA", "T4 sequence (P42336 whole entry E545K)": "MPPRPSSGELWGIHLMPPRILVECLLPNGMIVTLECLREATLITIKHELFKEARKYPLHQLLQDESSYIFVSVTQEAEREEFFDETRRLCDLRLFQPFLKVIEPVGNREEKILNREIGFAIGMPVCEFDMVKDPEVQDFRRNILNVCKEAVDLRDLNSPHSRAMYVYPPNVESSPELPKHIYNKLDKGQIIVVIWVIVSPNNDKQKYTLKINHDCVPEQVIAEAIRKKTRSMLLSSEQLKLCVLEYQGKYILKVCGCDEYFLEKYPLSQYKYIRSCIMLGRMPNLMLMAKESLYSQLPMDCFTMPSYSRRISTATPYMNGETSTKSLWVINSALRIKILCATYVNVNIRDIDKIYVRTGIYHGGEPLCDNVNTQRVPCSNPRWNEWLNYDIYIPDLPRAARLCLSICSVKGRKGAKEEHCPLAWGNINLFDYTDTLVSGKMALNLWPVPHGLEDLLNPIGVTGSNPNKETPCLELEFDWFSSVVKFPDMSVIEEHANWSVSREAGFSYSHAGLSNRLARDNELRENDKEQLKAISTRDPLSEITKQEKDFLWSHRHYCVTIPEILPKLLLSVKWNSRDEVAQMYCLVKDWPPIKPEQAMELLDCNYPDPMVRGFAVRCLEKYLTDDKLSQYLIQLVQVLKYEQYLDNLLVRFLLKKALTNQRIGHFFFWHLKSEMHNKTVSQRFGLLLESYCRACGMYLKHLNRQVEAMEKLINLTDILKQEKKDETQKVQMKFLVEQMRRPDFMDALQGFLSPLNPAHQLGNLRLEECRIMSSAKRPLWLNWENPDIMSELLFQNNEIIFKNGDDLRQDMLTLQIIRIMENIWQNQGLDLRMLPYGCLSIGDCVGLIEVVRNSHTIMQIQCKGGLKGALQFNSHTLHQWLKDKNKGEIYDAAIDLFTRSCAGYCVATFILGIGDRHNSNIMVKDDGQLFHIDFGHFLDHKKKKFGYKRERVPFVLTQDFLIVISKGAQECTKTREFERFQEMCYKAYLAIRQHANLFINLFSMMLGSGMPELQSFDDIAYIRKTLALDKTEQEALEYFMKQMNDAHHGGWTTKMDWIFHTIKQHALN", "T4 sequence (P27986 whole entry partner)": "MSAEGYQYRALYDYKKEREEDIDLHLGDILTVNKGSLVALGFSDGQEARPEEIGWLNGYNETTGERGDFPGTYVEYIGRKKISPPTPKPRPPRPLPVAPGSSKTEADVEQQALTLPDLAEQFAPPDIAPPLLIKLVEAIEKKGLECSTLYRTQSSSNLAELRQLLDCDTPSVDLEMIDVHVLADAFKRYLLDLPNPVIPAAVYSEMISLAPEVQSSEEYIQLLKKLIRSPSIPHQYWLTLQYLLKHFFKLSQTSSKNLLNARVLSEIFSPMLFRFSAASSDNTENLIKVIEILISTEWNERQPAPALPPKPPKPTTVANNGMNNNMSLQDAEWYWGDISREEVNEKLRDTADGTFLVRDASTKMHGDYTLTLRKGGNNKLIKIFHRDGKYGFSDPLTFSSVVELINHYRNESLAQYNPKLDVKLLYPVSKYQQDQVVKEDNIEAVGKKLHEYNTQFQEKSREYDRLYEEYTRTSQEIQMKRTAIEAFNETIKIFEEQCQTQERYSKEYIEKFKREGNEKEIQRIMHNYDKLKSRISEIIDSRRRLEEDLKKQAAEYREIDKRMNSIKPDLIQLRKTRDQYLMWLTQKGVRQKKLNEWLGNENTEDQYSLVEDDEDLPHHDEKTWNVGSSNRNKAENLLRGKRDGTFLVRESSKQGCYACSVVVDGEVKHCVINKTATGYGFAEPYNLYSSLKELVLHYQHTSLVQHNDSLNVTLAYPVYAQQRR", "outline": "as §1"}, "PKAcβ(h)": {"target": "T5, PKAcβ(h) (Homo sapiens, UniProt P22694)", "T5 construct": "gene PRKACB", "outline": "as §1"}, "[2]": {"conditions": "read-out: Residual activity (%) Spautin-1 5aa"}, "[3]": {"conditions": "read-out: Residual activity (%) 5as"}, "[4]": {"conditions": "read-out: Residual activity (%) 5at"}, "[5]": {"conditions": "read-out: Residual activity (%) 5ay"}}, "note": "Read-outs that look alike come from different tables or passages of the source.", "data": [{"smiles": "Fc1ccc(CNc2ncnc3ccc(F)cc23)cc1", "note": "[5aa, 6-Fluoro-N-(4-fluorobenzyl)-4-Quinazolinamine]", "values": [{"measurement": "remaining activity at 10 µM", "setting": "LATS2(h); [2]", "value": 94, "unit": "%"}, {"measurement": "remaining activity at 10 µM", "setting": "DRAK1(h); [2]", "value": 98, "unit": "%"}, {"measurement": "remaining activity at 10 µM", "setting": "CaMKIIδ(h); [2]", "value": 90, "unit": "%"}, {"measurement": "remaining activity at 10 µM", "setting": "[1]; [2]", "value": 96, "unit": "%"}, {"measurement": "remaining activity at 10 µM", "setting": "PKAcβ(h); [2]", "value": 87, "unit": "%"}]}, {"smiles": "Fc1ccc(CCNc2ncnc3ccc(F)cc23)cc1", "note": "[5as, 6-Fluoro-N-[2-(4-Fluorophenyl)Ethyl]-4-Quinazolinamine]", "values": [{"measurement": "remaining activity at 10 µM", "setting": "LATS2(h); [3]", "value": 74, "unit": "%"}, {"measurement": "remaining activity at 10 µM", "setting": "DRAK1(h); [3]", "value": 79, "unit": "%"}, {"measurement": "remaining activity at 10 µM", "setting": "CaMKIIδ(h); [3]", "value": 79, "unit": "%"}, {"measurement": "remaining activity at 10 µM", "setting": "[1]; [3]", "value": 93, "unit": "%"}, {"measurement": "remaining activity at 10 µM", "setting": "PKAcβ(h); [3]", "value": 97, "unit": "%"}]}, {"smiles": "Fc1ccc2ncnc(NCCc3ccc(Cl)cc3)c2c1", "note": "[5at, N-[2-(4-Chlorophenyl)Ethyl]-6-Fluoro-4-Quinazolinamine]", "values": [{"measurement": "remaining activity at 10 µM", "setting": "LATS2(h); [4]", "value": 75, "unit": "%"}, {"measurement": "remaining activity at 10 µM", "setting": "DRAK1(h); [4]", "value": 85, "unit": "%"}, {"measurement": "remaining activity at 10 µM", "setting": "CaMKIIδ(h); [4]", "value": 77, "unit": "%"}, {"measurement": "remaining activity at 10 µM", "setting": "[1]; [4]", "value": 91, "unit": "%"}, {"measurement": "remaining activity at 10 µM", "setting": "PKAcβ(h); [4]", "value": 107, "unit": "%"}]}, {"smiles": "COc1ccc2ncnc(Nc3cccc(F)c3)c2c1", "note": "[5ay, N-(3-Fluorophenyl)-6-Methoxy-4-Quinazolinamine]", "values": [{"measurement": "remaining activity at 10 µM", "setting": "LATS2(h); [5]", "value": 72, "unit": "%"}, {"measurement": "remaining activity at 10 µM", "setting": "DRAK1(h); [5]", "value": 57, "unit": "%"}, {"measurement": "remaining activity at 10 µM", "setting": "CaMKIIδ(h); [5]", "value": 41, "unit": "%"}, {"measurement": "remaining activity at 10 µM", "setting": "[1]; [5]", "value": 81, "unit": "%"}, {"measurement": "remaining activity at 10 µM", "setting": "PKAcβ(h); [5]", "value": 85, "unit": "%"}]}]}
